# Legend:
# Type in all cases: functional
# Staphylococcus aureus [1] = assay: Antibacterial activity against glycopeptide-intermediate Staphylococcus aureus L3797 by broth microdilution assay
# Staphylococcus aureus [2] = assay: Antibacterial activity against glycopeptide-intermediate Staphylococcus aureus L3798 by broth microdilution assay
# Streptococcus pneumoniae [3] = assay: Antibacterial activity against Streptococcus pneumoniae ATCC 49619 by broth microdilution assay
# Streptococcus pneumoniae [4] = assay: Antibacterial activity against Streptococcus pneumoniae L44 by broth microdilution assay
# Streptococcus pyogenes = assay: Antibacterial activity against Streptococcus pyogenes L49 by broth microdilution assay
# Enterococcus faecalis [5] = assay: Antibacterial activity against Enterococcus faecalis L559 by broth microdilution assay
# Enterococcus faecalis [6] = assay: Antibacterial activity against vancomycin-resistant Enterococcus faecalis L560 by broth microdilution assay
# Enterococcus faecium = assay: Antibacterial activity against vancomycin-resistant Enterococcus faecium L569 by broth microdilution assay
smiles,measurement,setting,value
CN[C@@H](CC(C)C)C(=O)N[C@H]1C(=O)N[C@@H](CC(N)=O)C(=O)N[C@H]2C(=O)N[C@H]3C(=O)N[C@H](C(=O)N[C@@H](C(=O)O)c4cc(O)cc(O)c4-c4cc3ccc4O)[C@H](O)c3ccc(c(Cl)c3)Oc3cc2cc(c3O[C@H]2O[C@@H](CO)[C@H](O)[C@@H](O)[C@@H]2O[C@@H]2C[C@@](C)(N)[C@@H](O)[C@@H](C)O2)Oc2ccc(cc2Cl)[C@H]1O,MIC,Staphylococcus aureus [1],8 µg/mL
same,MIC,Staphylococcus aureus [2],16 µg/mL
same,MIC,Streptococcus pneumoniae [3],0.25 µg/mL
same,MIC,Streptococcus pneumoniae [4],0.5 µg/mL
same,MIC,Streptococcus pyogenes,0.5 µg/mL
same,MIC,Enterococcus faecalis [5],1 µg/mL
same,MIC,Enterococcus faecalis [6],> 64 µg/mL
same,MIC,Enterococcus faecium,> 64 µg/mL
